Experimental findings from patent US6107324A, “5-HT2A receptor inverse agonists” (priority 1999, dated 2000) are described below.

In test [1] the target is T1, constitutively active mutant human 5HT2C receptor AP-1 (Homo sapiens, UniProt P28335, S310K).
T1 sequence (P28335 33-458 S310K): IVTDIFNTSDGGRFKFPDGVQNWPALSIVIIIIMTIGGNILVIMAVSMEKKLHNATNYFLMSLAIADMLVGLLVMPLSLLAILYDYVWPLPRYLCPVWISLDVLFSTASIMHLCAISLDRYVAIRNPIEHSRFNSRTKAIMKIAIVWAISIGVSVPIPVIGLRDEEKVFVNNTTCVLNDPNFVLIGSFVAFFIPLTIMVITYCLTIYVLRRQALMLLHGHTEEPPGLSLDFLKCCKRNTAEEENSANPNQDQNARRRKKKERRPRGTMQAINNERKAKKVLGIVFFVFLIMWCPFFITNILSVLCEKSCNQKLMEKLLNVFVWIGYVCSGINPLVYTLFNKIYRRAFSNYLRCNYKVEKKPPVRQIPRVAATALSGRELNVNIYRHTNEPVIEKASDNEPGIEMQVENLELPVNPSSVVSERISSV
The experiment in a line: [35S]GTPγS binding assay, constitutively active mutant human 5HT2C receptor AP-1. The test is classed as biochemical. In general terms: GTPγS resists hydrolysis and so accumulates on activated G proteins.

The test system of test [2] is human mutated 5HT2A receptor, AP-3. The experiment in a line: Inositol phosphate (IP3) accumulation assay, AP-3. Type of test: cell-based. Conditions: preferred compounds tables (μM).
For test [3], the system named is 5HT2A receptor (cerebral cortex). As to the kind of experiment: I125-LSD displacement from rat brain sections, cerebral cortex (5HT2A). Type of test: binding, Sprague-Dawley rats. As to conditions: 1 micromolar compound, 1 nanomolar I125-LSD, 30 minutes room temperature.
In test [4] the test system is Adult male Sprague-Dawley rats. As to the kind of experiment: Amphetamine-stimulated locomotor activity in rats. The test is classed as in vivo. An excerpt:
A 5HT2A receptor antagonist or inverse agonist is expected to decrease amphetamine-stimulated locomotion without affecting baseline locomotion. See, for example, Soresnon, et al, 266(2) J. Pharmacol. Exp. Ther. 684 (1993). […] For the following study, the following parameters and protocol were utilized:
Adult male Sprague-Dawley rats were utilized for these studies. Animals were housed in groups of 2-3 in hanging plastic cages with food and water available at all times. Animals were weighed and handled for at least one day prior to surgery and throughout the studies. For these studies, Vehicle consisted of 90% ethanol (100%) and 10% water.
A San Diego Instruments Flex Field apparatus was used to quantify baseline and amphetamine-stimulated locomotor activity. This apparatus consists of four 16"×16" clear plastic open fields. Photocell arrays (16 in each dimension) interfaced with a personal computer to automatically quantify activity. Several measures of activity can be assessed with the apparatus, including total photocell beam breaks. Animals (vehicle control and Compound treated) were injected s.c. 30 minutes prior to initiation of analysis. Following this 30 minute period, animals were placed individually into an open field and baseline activity was assessed for 30 minutes (habituation phase). […]

The target of test [5] is T2, Wild Type Human 5HT2A Receptor (Homo sapiens, UniProt P28223).
T2 construct: expressed in transfected cells; host or cells: COS-7 cells, transient transfection (pCMV); membranes
The experiment in a line: [3H]LSD competitive binding assay, wild type 5HT2A.

In test [6] the target is T3, endogenous human 5-HT2C receptor (Homo sapiens, UniProt P28335).
T3 sequence (P28335 33-458): T1 sequence (P28335 33-458 S310K) with K278S

Positions count from the first letter of the chain named. Where two headings read alike, the source gives them in different places.

T2 sequence (P28223 whole entry T25N/H452Y): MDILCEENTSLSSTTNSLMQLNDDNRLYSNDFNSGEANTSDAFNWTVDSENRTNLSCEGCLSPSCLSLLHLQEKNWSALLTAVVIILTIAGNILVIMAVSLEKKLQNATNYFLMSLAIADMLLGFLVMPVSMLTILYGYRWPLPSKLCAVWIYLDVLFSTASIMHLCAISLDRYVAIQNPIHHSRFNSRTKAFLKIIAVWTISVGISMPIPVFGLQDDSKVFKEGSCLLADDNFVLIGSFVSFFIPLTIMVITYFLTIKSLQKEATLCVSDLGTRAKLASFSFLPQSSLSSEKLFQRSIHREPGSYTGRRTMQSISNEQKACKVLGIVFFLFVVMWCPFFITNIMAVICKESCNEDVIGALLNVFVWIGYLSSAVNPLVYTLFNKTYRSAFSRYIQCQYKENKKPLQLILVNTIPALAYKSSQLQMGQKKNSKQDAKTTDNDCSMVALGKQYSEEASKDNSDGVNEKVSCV

As a reminder, the inhibition is the change of the read-out against control, counted positive when it falls. `Cn1cc(Br)c(-c2cccc(NC(=O)Nc3ccc(OC(F)(F)F)cc3)c2)n1` [Compound 103487, N-[3-(4-bromo-1-methylpyrazol-3-yl)phenyl][{(4-trifluoromethoxy)phenyl}amino]carboxamide]: the inhibition at 10 µM in test [1] (read-out: GTPγS AP-1 Percent Inhibition Relative To Positive Control (Primary)) is -1%; in test [1] (read-out: GTPγS AP-1 Percent Inhibition Relative To Positive Control (Reconfirm)), 31%. As a reminder, the IC50 is the concentration that gives 50% inhibition. Higher therefore signals lower potency. The compound `COc1ccc(OC(=O)Nc2cccc(-c3nn(C)cc3Br)c2)cc1` [Compound 116100, N-[3-(4-bromo-1-methylpyrazol-3-yl)phenyl][4-methoxyphenoxy]carboxamide] yielded an IC50 in test [2] of 0.0003 µM. Moreover, the “displacement of I125-LSD from cortex” value in test [3] is listed as “selectively displace the I^125 -LSD from the cortex (5HT2A)”.

For `Cn1cc(Br)c(-c2cccc(NC(=O)c3cccs3)c2)n1` [Compound 116102, N-[3-(4-bromo-1-methylpyrazol-3-yl)phenyl][2-thienyl]carboxamide], the amphetamine-stimulated locomotion entry in test [4] (s.c., 0.1, 1.0, 5.0, 10.0 mg/kg, d-amphetamine sulfate 1.0 mg/kg, photobeam breaks) is recorded as “with exception of the highest dose (10 mg/kg), in vivo, the tested doses of Compound 116102 evidenced a decrease in the amphetamine-stimulated locomotion”. The “dose-response pattern of locomotor activity” value in test [4] (s.c., 0.1-10.0 mg/kg, FIGS. 17A-C) is “"inverted U" shaped pattern”. In test [5], `CC(C)c1ccc(NC(=O)Nc2cccc(-c3nn(C)cc3Br)c2)cc1` [Compound 116110, {[3-(4-bromo-1-methylpyrazol-3-yl)phenyl]amino}-N-[4-(methylethyl)phenyl]carboxamide] came in with an IC50 of 338 nM.

Compound `Cn1cc(Br)c(-c2cccc(NC(=O)OC(C)(C)C)c2)n1` [Compound 116192] gave an IC50 in test [2] of 0.057 µM. With `CSc1ccc2c(c1)C(N1CCN(C)CC1)Cc1ccccc1S2` (stereo not shown) [Methiothepin], the IC50 in test [1] stood at 20.4 nM. Still for that read-out and setting: in the case of `Clc1ccc2c(c1)N=C(N1CCNCC1)c1ccccc1N2` [Normethylclozapin] it was 21.4 nM. Take `CN1CCN2c3ccccc3Cc3ccccc3C2C1` (stereo not shown) [mianserin]: in test [1] (FIG. 10, AP-1 receptors in 293T cells, mianserin 30 μM, Wallac scintistrips), the “[35S]GTPγS binding, serotonin stimulation and inhibition by mianserin” value was “inhibition”. For the same compound, the “inhibition of serotonin-stimulated [35S]GTPγS binding” value in test [6] (30 μM (FIG. 9), FIG. 10 on Wallac scintistrips) is on record as “inhibits this response”. The “effect on basal constitutive [35S]GTPγS binding” value in test [6] (FIG. 10, membranes expressing endogenous human 5-HT2C receptor) was “partial inverse agonist”.
